Results: the C3SDB collision cross section collection

Conditions: instrument: DT, single field, calibrated with Agilent tune mix (Agilent)

| SMILES | collision cross section (N2) ([M+H]+) | collision cross section (N2) ([M-H]-) | other results |
| --- | --- | --- | --- |
| Nc1nc(=O)c2ncn([C@@H]3O[C@H](COP(=O)(O)O)[C@@H](O)[C@H]3O)c2[nH]1 [Guanosine 5'-monophosphate] | 178.9 Å² | – | – |
| CCCCCCCCCCCCCCCCC(=O)O [Heptadecanoic acid] | – | 170.78 Å² | – |
| CCCCCC(=O)NCC(=O)O [Hexanoylglycine] | – | 144.64 Å² | – |
| O=C(O)Cc1cc(O)ccc1O [Homogentisic acid] | – | – | collision cross section (N2) ([M+H-H2O]+): 135.9 Å² |
| CN(C)CCc1ccc(O)cc1 [Hordenine] | 137.8 Å² | 143.21 Å² | – |
| CC(C)C[C@H](O)C(=O)O [Hydroxyisocaproic acid] | – | 126.06 Å² | – |
| O=C(O)/C=C/c1c[nH]c2ccccc12 [Indole-3-acrylic acid] | – | 134.53 Å² | – |
| O=C(O)C(=O)Cc1c[nH]c2ccccc12 [Indole-3-pyruvic acid] | – | 138.82 Å² | – |
| C=C(C)CCOP(=O)(O)OP(=O)(O)O [Isopentenyl pyrophosphate] | – | 141.71 Å² | – |
| N[C@@H](CC(=O)O)C(=O)N[C@@H](Cc1ccccc1)C(=O)O [L-Aspartyl-L-phenylalanine] | 164.9 Å² | – | collision cross section (N2) ([M+Na-2H]-): 162.34 Å² |
| NCCC(=O)N[C@@H](Cc1cnc[nH]1)C(=O)O [L-Carnosine] | 151 Å² | 149.72 Å² | – |
| NC(=O)NCCC[C@H](N)C(=O)O [L-Citrulline] | 138 Å² | – | – |
| N[C@@H](CCSC[C@H](N)C(=O)O)C(=O)O [L-Cystathionine] | 147 Å² | 139.51 Å² | – |
| O=C1O[C@H]([C@@H](O)CO)[C@H](O)[C@@H]1O [L-Gulonic gamma-lactone] | – | 131.6 Å² | collision cross section (N2) ([M+Na]+): 140.6 Å² |
| Nc1ccccc1C(=O)C[C@H](N)C(=O)O [L-Kynurenine] | 149.1 Å² | – | – |
| O=C(O)[C@@H]1CCCCN1 [L-Pipecolic acid] | 127.4 Å² | 126.71 Å² | – |
| O=C1CC[C@@H](C(=O)O)N1 [L-Pyroglutamic acid] | 130.6 Å² | – | – |
| N[C@@H](CCCCN[C@@H](CCC(=O)O)C(=O)O)C(=O)O [L-Saccharopine] | 159.8 Å² | – | collision cross section (N2) ([M+2Na-3H]-): 163.17 Å² |
| N[C@@H](CCS(=O)(=O)O)C(=O)O [L-homocysteic acid] | 140.3 Å² | – | collision cross section (N2) ([M+Na-2H]-): 132.56 Å² |
| CC(C)CCC[C@@H](C)[C@H]1CC[C@H]2C3=CC[C@H]4C[C@@H](O)CC[C@]4(C)[C@H]3CC[C@]12C [Lathosterol] | – | – | collision cross section (N2) ([M+H-H2O]+): 204.5 Å² |
| NC(=O)CCCCC1CCSS1 (centres undefined) [Lipoamide] | – | – | collision cross section (N2) ([M+Na]+): 150.5 Å² |
| O=P(O)(O)OC[C@H]1OC(O)[C@@H](O)[C@@H](O)[C@@H]1O (some centres undefined) [Mannose-6-phosphate] | – | – | collision cross section (N2) ([M+Na]+): 155.8 Å² |

| SMILES | collision cross section (N2) ([M+H]+) | collision cross section (N2) ([M-H]-) | other results |
| --- | --- | --- | --- |
| C[N+](C)(C)CCCC[C@H](N)C(=O)[O-] [N6,N6,N6-Trimethyl-L-lysine] | 142 Å² | – | – |
| CNCCCC[C@H](N)C(=O)O [N6-Methyl-L-lysine] | 132.5 Å² | 134.21 Å² | – |
| CC(=O)N[C@@H](Cc1ccc(O)cc1)C(=O)O [N-Acetyl-L-tyrosine] | – | 149.44 Å² | collision cross section (N2) ([M+Na]+): 154.5 Å² |
| CC(=O)NCCCCCN [N-Acetylcadaverine] | 132.9 Å² | 131.77 Å² | – |
| CC(=O)N[C@H]1C(OP(=O)(O)O)O[C@H](CO)[C@@H](O)[C@@H]1O (some centres undefined) [N-Acetylglucosamine 1-phosphate] | – | 156.42 Å² | collision cross section (N2) ([M+Na]+): 166.6 Å² |
| CC(=O)N[C@@H]1C(O)O[C@H](CO)[C@@H](O)[C@@H]1O (some centres undefined) [N-Acetylmannosamine] | – | – | collision cross section (N2) ([M+Na]+): 149.9 Å² |
| CC(=O)NCCc1c[nH]c2ccc(O)cc12 [N-Acetylserotonin] | 149.8 Å² | 148.65 Å² | – |
| CCCCCCCCCCCCC/C=C/[C@@H](O)[C@H](CO)NC(=O)CCCCCCCCCCCCCCCCC [N-Stearoylsphingosine] | – | 248.67 Å² | collision cross section (N2) ([M+Na]+): 256.4 Å² |
| CN(C)C(N)=NCCC[C@H](N)C(=O)O [NG,NG-dimethyl-L-arginine] | 143.5 Å² | – | – |
| CCCCCCCC/C=C\CCCCCCCCCCCCCC(=O)O [Nervonic acid] | – | 196.32 Å² | collision cross section (N2) ([M+H-H2O]+): 196.8 Å² |
| NC(=O)c1ccc[n+]([C@@H]2O[C@H](COP(=O)([O-])OP(=O)(O)OC[C@H]3O[C@@H](n4cnc5c(N)ncnc54)[C@H](O)[C@@H]3O)[C@@H](O)[C@H]2O)c1 [Nicotinamide adenine dinucleotide (NAD)] | 226.7 Å² | – | – |
| O=C(O)c1ccc[n+]([C@@H]2O[C@H](COP(=O)(O)O)[C@@H](O)[C@H]2O)c1 [Nicotinate D-ribonucleotide] | 164.8 Å² | – | – |
| Nc1ncnc2c1ncn2[C@@H]1O[C@H](COP(=O)(O)OP(=O)(O)OC[C@H]2O[C@@H]([n+]3cccc(C(=O)O)c3)[C@H](O)[C@@H]2O)[C@@H](O)[C@H]1O [Nicotinic acid adenine dinucleotide] | – | – | collision cross section (N2) ([M+2Na-3H]-): 238.49 Å² |
| O=C(O)CNC(=O)c1cccnc1 [Nicotinuric acid] | 143.6 Å² | 138.08 Å² | – |
| N[C@@H](CCOP(=O)(O)O)C(=O)O [O-Phospho-L-homoserine] | – | – | collision cross section (N2) ([M+Na]+): 141.6 Å² |
| CCCCCCCC/C=C\CCCCCCCC(=O)SCCNC(=O)CCNC(=O)[C@H](O)C(C)(C)COP(=O)(O)OP(=O)(O)OC[C@H]1O[C@@H](n2cnc3c(N)ncnc32)[C@H](O)[C@@H]1OP(=O)(O)O [Oleoyl-CoA] | 299.4 Å² | 298.79 Å² | – |
| O=c1nc2[nH][nH]cc-2c(=O)[nH]1 [Oxypurinol] | 126.7 Å² | 120.1 Å² | – |
| CC(C)(CO)[C@@H](O)C(=O)NCCC(=O)NCCS [Pantetheine] | – | – | collision cross section (N2) ([M+H-H2O]+): 164.6 Å²; collision cross section (N2) ([M+Na-2H]-): 164.94 Å² |
| CC(C)(CO)[C@@H](O)C(=O)NCCCO [Pantothenol] | 144.7 Å² | 141.49 Å² | – |
| CCCCCCCCC(=O)O [Pelargonic acid] | – | 143.33 Å² | – |
| CCCCCCCCCCCCCCC(=O)O [Pentadecanoic Acid] | – | 162.72 Å² | – |
| O=C(O)C#Cc1ccccc1 [Phenylpropiolic acid] | – | – | collision cross section (N2) ([M+H-H2O]+): 121.2 Å² |

| SMILES | collision cross section (N2) ([M+H]+) | collision cross section (N2) ([M-H]-) | other results |
| --- | --- | --- | --- |
| O=C(O)CNC(=O)CCc1ccccc1 [Phenylpropionylglycine] | – | 153.3 Å² | collision cross section (N2) ([M+Na]+): 145.5 Å² |
| O=C(O)CCCCCC(=O)O [Pimelic acid] | – | 129.29 Å² | – |
| NCc1[nH]cc(CCC(=O)O)c1CC(=O)O [Porphobilinogen] | – | 146.22 Å² | collision cross section (N2) ([M+Na]+): 148.1 Å² |
| O=C(O)C(=O)CC1(C(=O)O)C=CC(O)C=C1 (centres undefined) [Prephenate] | – | – | collision cross section (N2) ([M+Na]+): 155 Å² |
| CCC(=O)NCC(=O)O [Propionylglycine] | – | 126.93 Å² | – |
| O=c1[nH]cc([C@@H]2O[C@H](CO)[C@@H](O)[C@H]2O)c(=O)[nH]1 [Pseudouridine] | – | 145.23 Å² | collision cross section (N2) ([M+Na]+): 159 Å² |
| Cc1ncc(COP(=O)(O)O)c(CO)c1O [Pyridoxine 5-phosphate] | 150.5 Å² | – | – |
| Nc1ncnc2c1ncn2[C@@H]1O[C@H](CSCC[C@H](N)C(=O)O)[C@@H](O)[C@H]1O [S-Adenosyl-L-homocysteine] | 182.7 Å² | – | – |
| C[S+](CC[C@H](N)C(=O)[O-])C[C@H]1O[C@@H](n2cnc3c(N)ncnc32)[C@H](O)[C@@H]1O (some centres undefined) [S-Adenosylmethionine] | 184.5 Å² | – | – |
| CC(O)C(=O)SC[C@H](NC(=O)CC[C@H](N)C(=O)O)C(=O)NCC(=O)O (some centres undefined) [S-Lactoylglutathione] | 187.7 Å² | – | collision cross section (N2) ([M+Na-2H]-): 176.59 Å² |
| O=C(O)CCCCCCCCC(=O)O [Sebacic acid] | – | 141.9 Å² | – |
| CC(C)=CCC/C(C)=C/CC/C(C)=C/CC/C=C(\C)CC/C=C(\C)CCC=C(C)C [Squalene] | 210.9 Å² | – | – |
| O=C(O)CCCCCCC(=O)O [Suberic acid] | – | 133.2 Å² | – |
| O=C(O)CCCCCCC(=O)NCC(=O)O [Suberylglycine] | – | 146.81 Å² | collision cross section (N2) ([M+Na]+): 153.7 Å² |
| O=C(O)C(O)C(O)C(=O)O (centres undefined) [Tartaric acid] | – | 115.46 Å² | – |
| C[C@H](CCC(=O)NCCS(=O)(=O)O)[C@H]1CC[C@H]2[C@@H]3[C@H](O)C[C@@H]4C[C@H](O)CC[C@]4(C)[C@H]3C[C@H](O)[C@]12C [Taurocholate] | – | 205.82 Å² | collision cross section (N2) ([M+Na]+): 211.2 Å² |
| Nc1nc(=O)c2c([nH]1)NCC(CNc1ccc(C(=O)N[C@@H](CCC(=O)O)C(=O)O)cc1)N2 (some centres undefined) [Tetrahydrofolate] | – | 195.36 Å² | – |
| Cc1ncc(C[n+]2csc(CCOP(=O)(O)O)c2C)c(N)n1 [Thiamine monophosphate] | 169.7 Å² | – | – |
| O=C(O)/C=C/CCCCCCCCC(=O)O [Traumatic Acid] | – | 149.85 Å² | collision cross section (N2) ([M+Na]+): 161.9 Å² |
| NCCc1c[nH]c2ccccc12 [Tryptamine] | – | 131.55 Å² | collision cross section (N2) ([M+H-H2O]+): 125.1 Å² |
| NCCc1ccc(O)cc1 [Tyramine] | – | 129.74 Å² | – |
| COC1=C(OC)C(=O)C(C/C=C(\C)CCC=C(C)C)=C(C)C1=O [Ubiquinone-2] | 174.3 Å² | – | – |
